Source: patent US20250302862A1, “SMALL RNA DRUG FOR INHIBITING ACTIVITY OF CANCER CELLS” (Institute of Basic Medical Sciences Chinese Academy of …, priority 2022, published 2025)

What was measured:
[1] = system: primary lung cancer Kras^LSL-G12Dp53^fl/fl (KP) mouse model; assay: Transcriptome sequencing of lung tissue, pathway clustering of differentially expressed genes; type: in vivo; details: KP mouse lung tissue after 30 days of dosing, metacore pathway clustering, vs NC group
Text: The mouse model of primary lung cancer was Kras^LSL-G12Dp53^fl/fl (KP). Mice were weighed and assigned to the NC group and HQi-sRNA-2 group randomly. The NC group was the negative control, in which a sphingosine(d18:1)-NC-sRNA herbal medicine delivery system was constructed from NC-sRNA. The HQi-sRNA-2 group was the experimental group, in which a sphingosine(d18:1)-HQi-sRNA-2 herbal medicine delivery system was constructed from HQi-sRNA-2. The herbal medicine delivery system was constructed by heating and mixing 10 nmol of sRNA, 100 ug of sphingosine(d18:1) and 300 ul of sterile enzyme-free water in a water bath at 90° C. for 15 minutes. Mouse lung tissue was collected after 30 days of dosing, and the total RNA was extracted and subjected to non-strand-specific transcriptome sequencing. The differentially expressed genes in the experimental group and the control group were analyzed and calculated by a bioinformatics software, and the biological pathways in which the differentially expressed genes mainly functioned were analyzed by clustering using the metacore database. The pathways of the differentially expressed genes were visualized by the visualization software package ggplot2.
(§1) The mouse model of primary lung cancer was Kras^LSL-G12Dp53^fl/fl (KP). Mice were weighed and assigned to the NC group and MDM-sRNA-39 group randomly. […] The differentially expressed genes in the experimental group and the control group were analyzed and calculated by a bioinformatics software, and the biological pathways in which the differentially expressed genes mainly functioned were analyzed by clustering using the metacore database. […]
as §1, with “(KP).” for “(KP). Mice were weighed and assigned to the NC group and MDM-sRNA-39 group randomly.”

H460 cells = assay: Cell invasion (Matrigel Transwell); type: cell-based, human; details: 100 nmol/L, 48 h
Protocol: Matrigel (basement membrane matrix) was thawed on crushed ice one night before and diluted with serum-free medium to a final concentration of 200-300 ug/mL. 100 uL of the diluted Matrigel was added to each upper chamber, let stand at 37° C. for 30 min, and the supernatant was aspirated. H460 cells with a cell density of more than 90% in 10 cm^2 dishes were digested and resuspended with 1 mL of serum-free medium and counted. 100,000 cells (100 uL) were plated in the upper chamber, and complete medium with 10% FBS was added to the lower chamber of each chamber. Transfection was performed after 12 h, and the groups (3 wells per group) were divided as follows: • blank control group: 20 uL of opti-MEM • negative control group (NC group) and experimental group: • A. 10 uL of opti-MEM and 0.2 uL of iMax were mixed well for 5 min • B. 10 uL of opti-MEM and 0.5 uL of small RNA (final concentration 100 nmol/L) were mixed well • C. solution A and solution B were mixed well and let stand for 15 min, and then was added to each well at a 20 uL system • Note: 100 uL of nuclease-free water was added to 2 nmol of small RNA dry powder for dissolution at a storage concentration of 20 umol/L
After 48 h, the medium in upper and lower chambers was discarded. The cells were fixed with paraformaldehyde at room temperature for 15 min, stained with 0.1% crystal violet at room temperature for 15 min, and rinsed with PBS. The cells in the upper chamber were gently wiped off with cotton swabs, and the chamber was dried. A Leica inverted microscope DMi8 was turned on, the 5× objective lens was selected, the parameters were adjusted and the white balance was performed following the manual. Each chamber was photographed, followed by counting and statistic processing.
1) Matrigel basement membrane matrix was thawed on crushed ice one night before and diluted with serum-free medium to a final concentration of 200-300 ug/mL. […] H460 cells with a cell density of more than 90% in 10 cm^2 dishes were digested and resuspended with 1 mL of serum-free medium and counted. […]

Substance	functions of genes down-regulated at transcriptional level [1]	cell invasion (H460 cells)
HQi-sRNA-2: small RNA derived from Scutellaria baicalensis, sequence AUGGUUCGAUUCCGGAGAGGG (listed as RNA, chemistry not given here)	mainly clustered in oncology, immunology and other related biological pathways	inhibits
MDM-sRNA-39: small RNA derived from Maytenus hookeri, sequence GGGAUUGUAGUUCAAUUGGUCAGAGCACC (listed as RNA, chemistry not given here)	mainly clustered in oncology, immunology and other related biological pathways	inhibits
MDM-sRNA-163: small RNA derived from Maytenus hookeri, sequence UGACUCUAGUCCGACUUUGUGAAAUGACU (listed as RNA, chemistry not given here)	mainly clustered in oncology, immunology, and other related biological pathways	inhibits
